Data from patent US10005817B2, “Peptide pharmaceuticals” (EUMEDERIS PHARMACEUTICALS, INC., priority 2012, dated 2018).
pEC50: −log10 of the molar value. Non-standard residues stand in square brackets, D forms with d. Residues, ends and D or L forms follow the SMILES beside them. *: point of attachment. βGlcA(1-O-hexadecyl) = CCCCCCCCCCCCCCCCO[C@@H]1O[C@H](C(=O)*)[C@@H](O)[C@H](O)[C@H]1O; βDGlcA(1-OC18H37) = CCCCCCCCCCCCCCCCCCO[C@@H]1O[C@H](C(=O)*)[C@@H](O)[C@H](O)[C@H]1O; GlcA(β-D,1-O-dodecyl) = CCCCCCCCCCCCO[C@@H]1O[C@H](C(=O)*)[C@@H](O)[C@H](O)[C@H]1O; GlcA(β1-O-octyl) = CCCCCCCCO[C@@H]1O[C@H](C(=O)*)[C@@H](O)[C@H](O)[C@H]1O; βGlcA(1-OMe) = CO[C@@H]1O[C@H](C(=O)*)[C@@H](O)[C@H](O)[C@H]1O; Dmt = Cc1cc(O)cc(C)c1C[C@H](N)C(=O)O; hArg = N=C(N)NCCCC[C@H](N)C(=O)O; Tic = O=C(O)[C@@H]1Cc2ccccc2CN1; Nle = CCCC[C@H](N)C(=O)O; Ac5c = NC1(C(=O)O)CCCC1; Aib = CC(C)(N)C(=O)O; NHBn = c1ccc(CN*)cc1

Assays:
[1] = in water; cited from earlier work
[2] = target: T1, PTH receptor (PTHR1) (Homo sapiens, UniProt Q03431); experiment: PTH1 cellular assay, cAMP, agonist mode (SaOS2 cells, Cerep); format: cell-based; conditions: for Emax: SAOS-2, read-out: Maximal response (% PTHrP)
T1 construct: Cerep SA
T1 sequence (Q03431 27-593): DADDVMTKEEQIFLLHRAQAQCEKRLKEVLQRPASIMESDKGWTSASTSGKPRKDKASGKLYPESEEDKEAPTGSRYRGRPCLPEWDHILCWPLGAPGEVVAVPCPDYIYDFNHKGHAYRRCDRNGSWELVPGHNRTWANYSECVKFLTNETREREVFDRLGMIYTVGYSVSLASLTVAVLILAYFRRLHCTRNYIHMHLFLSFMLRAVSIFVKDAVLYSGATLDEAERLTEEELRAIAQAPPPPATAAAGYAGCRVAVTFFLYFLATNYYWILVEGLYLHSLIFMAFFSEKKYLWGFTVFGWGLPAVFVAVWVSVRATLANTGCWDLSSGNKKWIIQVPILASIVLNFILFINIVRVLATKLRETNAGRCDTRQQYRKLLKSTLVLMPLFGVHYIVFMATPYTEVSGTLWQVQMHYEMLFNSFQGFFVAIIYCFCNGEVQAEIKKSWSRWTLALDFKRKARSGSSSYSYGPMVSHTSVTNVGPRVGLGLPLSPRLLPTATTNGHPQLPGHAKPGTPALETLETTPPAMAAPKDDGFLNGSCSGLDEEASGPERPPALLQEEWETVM
Procedure: Compounds were weighed precisely in an amount of approximately 1 mg and assayed in standard cellular assays (cerep SA). The readout is the amount of cAMP generated in the cells treated with the test compounds, in either agonist or antagonist mode.
Compounds were dissolved in water and diluted in assay buffer containing 1% bovine serum albumin.

[3] = target: T2, mu opioid receptor (Homo sapiens, UniProt P35372); experiment: mu opioid receptor cellular assay (MOP), agonist mode, cAMP readout (Cerep); format: cell-based
T2 construct: Cerep
T2 sequence (P35372 whole entry): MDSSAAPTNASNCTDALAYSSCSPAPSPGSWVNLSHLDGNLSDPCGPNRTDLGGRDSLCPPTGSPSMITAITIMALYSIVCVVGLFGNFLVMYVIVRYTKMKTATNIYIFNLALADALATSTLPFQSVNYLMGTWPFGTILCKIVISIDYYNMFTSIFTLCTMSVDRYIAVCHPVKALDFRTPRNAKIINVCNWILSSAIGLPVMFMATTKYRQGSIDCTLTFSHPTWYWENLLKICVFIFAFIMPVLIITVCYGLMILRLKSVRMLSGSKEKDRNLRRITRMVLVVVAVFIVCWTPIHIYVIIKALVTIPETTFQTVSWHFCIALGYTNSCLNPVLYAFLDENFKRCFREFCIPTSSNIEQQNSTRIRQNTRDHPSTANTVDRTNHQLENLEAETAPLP
Procedure: (§1) Compounds were weighed precisely in an amount of approximately 2 mg and assayed in standard cellular assays by the contract research organization Cerep, Inc. (Pullman, Wash.) as executed at their subsidiary, Cerep SA (Le Bois l'Eveque, France). The readout is the amount of cAMP generated in the cells treated with the test compounds, in either agonist or antagonist mode. The assays used were the mu opioid receptor cellular assay (MOP in agonist and antagonist mode), the delta2 opioid receptor cellular assay (DOP in agonist and antagonist mode) and the kappa opioid receptor cellular assay (KOP in agonist and antagonist mode). The assays used are described in Wang, J. B., et al. (1994) FEBS Lett 338: 217-222, Law, P. Y. and Loh, H. H. (1993) Mol Pharmacol 43: 684-693, and Avidor-Reiss, T., et al. (1995) FEBS Lett 361: 70-74. The stimulant for the cells in the DOR antagonist assay was 3×10E-8M DPDPE, a well-accepted DOR literature standard.

[4] = target: T3, delta2 opioid receptor (Mus musculus, UniProt P32300); experiment: delta2 opioid receptor cellular assay (DOP), antagonist mode vs DPDPE, cAMP readout; format: cell-based
T3 construct: Cerep
T3 sequence (P32300 whole entry): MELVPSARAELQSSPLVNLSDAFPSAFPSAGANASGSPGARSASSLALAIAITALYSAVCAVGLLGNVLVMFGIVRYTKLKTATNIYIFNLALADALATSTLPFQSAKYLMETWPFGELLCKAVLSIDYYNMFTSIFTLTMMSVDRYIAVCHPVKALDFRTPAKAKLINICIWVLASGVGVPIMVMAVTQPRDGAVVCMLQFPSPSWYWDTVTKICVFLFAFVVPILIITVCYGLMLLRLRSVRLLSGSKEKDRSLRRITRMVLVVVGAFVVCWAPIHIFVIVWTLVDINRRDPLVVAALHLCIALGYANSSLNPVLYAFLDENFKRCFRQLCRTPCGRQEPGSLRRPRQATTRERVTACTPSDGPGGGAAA
Procedure: as §1

[5] = plasma protease stability, incubation in human plasma at 37 degC, LC-MS; format: in vitro ADME; conditions: over 8 hrs

CCCCCCCCCCCCCCO[C@@H]1O[C@H](CO)[C@@H](O[C@@H]2O[C@@H](CO)[C@H](O)[C@@H](O)[C@@H]2O)[C@H](O)[C@H]1O (stereo in doubt) [Tetradecyl maltoside]
CMC [1]: 0.01 mM

CCCCCCCCCCCCCO[C@@H]1O[C@H](CO)[C@@H](OC2OC(CO)C(O)C(O)C2O)[C@H](O)[C@H]1O (stereo in doubt) [Tridecyl maltoside]
CMC [1]: 0.03 mM

CCCCCCCCCCO[C@@H]1O[C@H](CO)[C@@H](O[C@H]2O[C@H](CO)[C@@H](O)[C@H](O)[C@H]2O)[C@H](O)[C@H]1O [Decyl maltoside]
CMC [1]: 1.8 mM

CCCCCCCCCCCCO[C@@H]1O[C@H](CO)[C@@H](O[C@H]2O[C@H](CO)[C@@H](O)[C@H](O)[C@H]2O)[C@H](O)[C@H]1O [Dodecyl-β-D-maltoside]
CMC [1]: 0.17 mM

CCCCCCCCCCCCCCCCO[C@@H]1O[C@H](C(=O)NCCCC[C@H](NC(=O)C(C)(C)NC(=O)[C@H](CCC(N)=O)NC(=O)[C@@H](NC(=O)[C@H](Cc2c[nH]c3ccccc23)NC(=O)[C@H](CCCNC(=N)N)NC(=O)[C@H](C)NC(=O)[C@H](CCCCNC(=N)N)NC(=O)[C@H](CCC(N)=O)NC(=O)[C@H](Cc2c[nH]cn2)NC(=O)[C@H](CCCC)NC(=O)[C@H](CC(C)C)NC(=O)[C@H](CCC(N)=O)NC(=O)[C@@H](NC(=O)[C@H](CCC(=O)O)NC(=O)C(C)(C)NC(=O)[C@@H](NC(=O)C2(N)CCCC2)C(C)C)[C@@H](C)CC)[C@@H](C)CC)C(=O)NC(C)(C)C(N)=O)[C@@H](O)[C@H](O)[C@H]1O [EU-287, Ac5c1-VaL2-Aib3-Glu4-Ile5-Gln6-Leu7-Nle8-His9-Gln10-hArg11-Ala12-Arg13-TrP14-Ile15-Gln16-Aib17-Lys(N-epsilon-1′-hexadecylbeta-D-glucuronyL)18-Aib19-NH2] (H-[Ac5c]V[Aib]EIQL[Nle]HQ[hArg]ARWIQ[Aib]K(βGlcA(1-O-hexadecyl))[Aib]-NH2)
Characterization [2]: agonist | pEC50 [2]: > 9.00 | Emax [2]: 128%

CCCCCCCCCCCCCCCCCCO[C@@H]1O[C@H](C(=O)NCCCC[C@H](NC(=O)C(C)(C)NC(=O)[C@H](CCC(N)=O)NC(=O)[C@@H](NC(=O)[C@H](Cc2c[nH]c3ccccc23)NC(=O)[C@H](CCCNC(=N)N)NC(=O)[C@H](C)NC(=O)[C@H](CCCCNC(=N)N)NC(=O)[C@H](CCC(N)=O)NC(=O)[C@H](Cc2c[nH]cn2)NC(=O)[C@H](CCCC)NC(=O)[C@H](CC(C)C)NC(=O)[C@H](CCC(N)=O)NC(=O)[C@@H](NC(=O)[C@H](CCC(=O)O)NC(=O)C(C)(C)NC(=O)[C@@H](NC(=O)C2(N)CCCC2)C(C)C)[C@@H](C)CC)[C@@H](C)CC)C(=O)NC(C)(C)C(N)=O)[C@@H](O)[C@H](O)[C@H]1O [EU-288, Ac5c1-VaL2-Aib3-Glu4-Ile5-Gln6-Leu7-Nle8-His9-Gln10-hArg11-Ala12-Arg13-Trp14-Ile15-Gln16-Aib17-Lys(N-epsilon-1′-octadecylbeta-D-glucuronyl)18-Aib19-NH2] (H-[Ac5c]V[Aib]EIQL[Nle]HQ[hArg]ARWIQ[Aib]K(βDGlcA(1-OC18H37))[Aib]-NH2)
Characterization [2]: agonist | pEC50 [2]: > 9.00 | Emax [2]: 130%

CCCCCCCCCCCCO[C@@H]1O[C@H](C(=O)NCCCC[C@H](NC(=O)[C@H](Cc2ccccc2)NC(=O)[C@@H]2Cc3ccccc3CN2C(=O)[C@@H](N)Cc2c(C)cc(O)cc2C)C(N)=O)[C@@H](O)[C@H](O)[C@H]1O [EU-A179, Dmt-Tic-Phe-Lys(C12-glucuronyl)-NH2] (H-[Dmt][Tic]FK(GlcA(β-D,1-O-dodecyl))-NH2)
Characterization (MOP) [3]: Pure MOP Ag; | Characterization (DOP) [4]: pure DOP antag

CCCCCCCCO[C@@H]1O[C@H](C(=O)NCCCC[C@H](NC(=O)[C@H](Cc2ccccc2)NC(=O)[C@@H]2Cc3ccccc3CN2C(=O)[C@@H](N)Cc2c(C)cc(O)cc2C)C(N)=O)[C@@H](O)[C@H](O)[C@H]1O [EU-A180, Dmt-Tic-Phe-Lys(C8-glucuronyl)-NH2] (H-[Dmt][Tic]FK(GlcA(β1-O-octyl))-NH2)
Characterization (MOP) [3]: Pure MOP Ag; | pEC50 [3]: 7.44 | Characterization (DOP) [4]: pure DOP antag

CO[C@@H]1O[C@H](C(=O)NCCCC[C@H](NC(=O)[C@H](Cc2ccccc2)NC(=O)[C@H](Cc2ccccc2)NC(=O)[C@@H]2Cc3ccccc3CN2C(=O)[C@@H](N)Cc2c(C)cc(O)cc2C)C(N)=O)[C@@H](O)[C@H](O)[C@H]1O [EU-A189, 2′,6′-dimethyl-L-tyrosyl-L-1,2,3,4-tetrahydroisoquinoline-3-carbonyl-L-phenylalanyl-L-phenylalanyl-Nε-(1′-methyl β-D-glucuronyl)-L-lysyl-amide]
Characterization (MOP) [3]: Pure MOP Ag; | pEC50 [3]: 7.39 | Characterization (DOP) [4]: pure DOP antag

CCCCCCCCCCCCO[C@@H]1O[C@H](C(=O)NCCCC[C@H](NC(=O)[C@H](Cc2ccccc2)NC(=O)[C@H](Cc2ccccc2)NC(=O)[C@@H]2Cc3ccccc3CN2C(=O)[C@@H](N)Cc2c(C)cc(O)cc2C)C(N)=O)[C@@H](O)[C@H](O)[C@H]1O [EU-A190, Dmt-Tic-Phe-Phe-Lys(C12-glucuronyl)-NH2]
Characterization (MOP) [3]: Pure MOP Ag; | Characterization (DOP) [4]: pure DOP antag

CO[C@@H]1O[C@H](C(=O)NCCCC[C@H](NC(=O)[C@H](Cc2ccccc2)NC(=O)[C@@H]2Cc3ccccc3CN2C(=O)[C@@H](N)Cc2c(C)cc(O)cc2C)C(=O)NC(C)(C)C(N)=O)[C@@H](O)[C@H](O)[C@H]1O [EU-A600, Dmt-Tic-Phe-Lys(C1-glucuronyl)-Aib-NH2] (H-[Dmt][Tic]FK(βGlcA(1-OMe))[Aib]-NH2; N-terminus assumed)
Characterization (MOP) [3]: Pure MOP Ag; | pEC50 [3]: 6.96 | Characterization (DOP) [4]: pure DOP antag

CO[C@@H]1O[C@H](C(=O)NCCCC[C@@H](NC(=O)[C@H](Cc2ccccc2)NC(=O)[C@@H]2Cc3ccccc3CN2C(=O)[C@@H](N)Cc2c(C)cc(O)cc2C)C(N)=O)[C@@H](O)[C@H](O)[C@H]1O [EU-A615, Dmt-Tic-Phe-D-Lys(C1-glucuronyl)-Aib-NH2] (H-[Dmt][Tic]F[dK](βGlcA(1-OMe))-NH2)
Characterization (MOP) [3]: Pure MOP Ag; | Characterization (DOP) [4]: pure DOP antag

CO[C@@H]1O[C@H](C(=O)NCCCC[C@H](NC(=O)[C@H](Cc2ccccc2)NC(=O)[C@@H]2Cc3ccccc3CN2C(=O)[C@@H](N)Cc2c(C)cc(O)cc2C)C(=O)NCc2ccccc2)[C@@H](O)[C@H](O)[C@H]1O [EU-A620, Dmt-Tic-Phe-Lys(C1-glucuronyl)-NHCH2Ph] (H-[Dmt][Tic]FK(βGlcA(1-OMe))-NHBn)
Characterization (MOP) [3]: Pure MOP Ag; | pEC50 [3]: 6.32 | Characterization (DOP) [4]: pure DOP antag

CO[C@@H]1O[C@H](C(=O)NCCCC[C@@H](NC(=O)[C@H](Cc2ccccc2)NC(=O)[C@@H]2Cc3ccccc3CN2C(=O)[C@@H](N)Cc2c(C)cc(O)cc2C)C(=O)NCc2ccccc2)[C@@H](O)[C@H](O)[C@H]1O [EU-A639, Dmt-Tic-Phe-D-Lys(C1-glucuronyl)-NHCH2Ph] (H-[Dmt][Tic]F[dK](βGlcA(1-OMe))-NHBn; N-terminus assumed)
Characterization (MOP) [3]: Pure MOP Ag; | pEC50 [3]: 6.55 | Characterization (DOP) [4]: pure DOP antag

CC[C@H](C)[C@H](NC(=O)[C@H](Cc1ccccc1)NC(=O)[C@H](CCC(=O)O)NC(=O)[C@H](CCCCN)NC(=O)[C@H](C)NC(=O)[C@H](C)NC(=O)[C@H](CCC(N)=O)NC(=O)CNC(=O)[C@H](CCC(=O)O)NC(=O)[C@H](CC(C)C)NC(=O)[C@H](Cc1ccc(O)cc1)NC(=O)[C@H](CO)NC(=O)[C@H](CO)NC(=O)[C@@H](NC(=O)[C@H](CC(=O)O)NC(=O)[C@H](CO)NC(=O)[C@@H](NC(=O)[C@H](Cc1ccccc1)NC(=O)[C@@H](NC(=O)CNC(=O)[C@H](CCC(=O)O)NC(=O)[C@H](C)NC(=O)[C@@H](N)Cc1c[nH]cn1)[C@@H](C)O)[C@@H](C)O)C(C)C)C(=O)N[C@@H](C)C(=O)N[C@@H](Cc1c[nH]c2ccccc12)C(=O)N[C@@H](CC(C)C)C(=O)N[C@H](C(=O)N[C@@H](CCCCN)C(=O)NCC(=O)N[C@@H](CCCNC(=N)N)C(N)=O)C(C)C [GLP-1 (7-36), reference compound]
amount of intact compound versus time in human plasma [5]: rapid decrease

CCCCCCCCO[C@@H]1O[C@H](CO)[C@@H](O[C@H]2O[C@H](CO)[C@@H](O)[C@H](O)[C@H]2O)[C@H](O)[C@H]1O [Octyl maltoside]
CMC [1]: 19.5 mM

Sucrose dodecanoate
CMC [1]: 0.3 mM
